Test results as given in patent US12286401B2, “Small molecules that sensitize HIV-1 infected cells to antibody dependent cellular cytotoxicity” (THE TRUSTEES OF THE UNIVERSITY OF PENNSYLVANIA, priority 2018, dated 2025).

Key:
[1] = test system: CH58TF infected primary CD4+ T-cells; test: HIV+ patient sera/plasma recognition of CH58TF infected primary CD4+ T-cells (flow cytometry cell-surface staining); format: cell-based, HIV-1; conditions: Human immunodeficiency virus 1, T-cell, read-out: Fold Over DMSO (patient sera, n = 3)
Description: (§1) Cell-surface staining of primary CD4+ T cells from healthy HIV uninfected individuals or CEM-NKr cells is performed, as described in Prevost, “Influence of the Envelope gp120 Phe 43 Cavity on HIV-1 Sensitivity to Antibody-Dependent Cell-Mediated Cytotoxicity Responses,” 2017, J. Virol 91; Richard, “CD4 mimetics sensitize HIV-1-infected cells to ADCC,” 2015, Proc. Natl. Acad. Sci. USA, 112:E2687-2694; Richard, “Small CD4 Mimetics Prevent HIV-1 Uninfected Bystander CD4+ T Cell Killing Mediated by Antibody-dependent Cell-mediated Cytotoxicity,” 2016, EBioMedicine 3:122-134; Veillette, “The HIV-1 gp120 CD4-Bound Conformation Is Preferentially Targeted by Antibody-Dependent Cellular Cytotoxicity-Mediating Antibodies in Sera from HIV-1-Infected Individuals,” 2015, J. Virol., 89:545-551; Veillette, “Interaction with cellular CD4 exposes HIV-1 envelope epitopes targeted by antibody-dependent cell-mediated cytotoxicity,” 2014, J. Virol., 88:2633-2644; Richard, “Uninfected Bystander Cells Impact the Measurement of HIV-Specific Antibody-Dependent Cellular Cytotoxicity Responses,” 2018, MBio. 9(2): e00358-18; Richard, “BST-2 Expression Modulates Small CD4-Mimetic Sensitization of HIV-1-Infected Cells to Antibody-Dependent Cellular Cytotoxicity,” 2017, J. Virol. 91(11):e00219-17. Binding of HIV-1 infected cells by HIV+ sera (1:1000 dilution) or anti-Env Abs (such as 17b) is performed […] in vitro infection at 37° C. in presence of different concentrations of the MCG analogs or with equivalent volume of vehicle (DMSO). Cells infected with HIV-1 primary isolates are stained intracellularly for HIV-1 p24 using the Cytofix/Cytoperm Fixation/Permeabilization Kit (BD Biosciences, Mississauga, ON, Canada) and then fluorescent anti-p24 mAb (PE-anti-p24, clone KC57; Beckman Coulter/Immunotech, Hialeah, FL) (1:100 final concentration). The percentage of infected cells (p24^+ or GFP+ cells) is determined by gating the living cell population based on the viability dye staining. Samples are analyzed on an LSRII cytometer (BD Biosciences, Mississauga, ON, Canada) and data analysis is performed using FlowJo vX0.7 (Tree Star, Ashland, OR, USA).
HIV+ Patient Sera (n=3) Recognition of CH58TF Infected Primary CD4+ T-Cells
Staining with patient sera and 50 μM of compounds given as a fold change over DMSO (vehicle).
(§2) Briefly, Primary CD4 T cells isolated from PBMC were infected with HIV-1CH58TF for 48 hours. For cell surface staining, 5 μg/ml 17b (FIG. 15A) or 1:1000 diluted HIV+ plasma (n=15) (FIG. 15B) were used in the presence of the different MCG analogs (50 μM), (+)-BNM-III-170 or with an equivalent volume of vehicle (DMSO). An Alexa Fluor 647-conjugated anti-human IgG secondary Ab was then used for fluorescent labeling. For ADCC (FIG. 15C), infected cells were used as target cells in a FACS-based ADCC assay that measures the killing of infected (p24+ cells). See, Madani, 2016, J. Virol., 90:5031-5046. The assay determines susceptibility to ADCC mediated by a 1/1,000 dilution of plasma from 15 HIV-1-infected individuals in the presence of the different MCG analogs (50 μM), (+)-BNM-III-170 (50 μM) or with an equivalent volume of vehicle (DMSO). Correlation between cell-surface staining with HIV+ plasma and ADCC was calculated using the Spearman rank correlation (FIG. 15D).

[2] = test system: CH58TF infected primary CD4+ T-cells; test: Recognition of HIV-1 infected cells by 17b (flow cytometry cell-surface staining); format: cell-based; conditions: Human immunodeficiency virus 1, T-cell, read-out: Fold Over DMSO (17b, n = 1)
Description: as §1, §2

[3] = test system: HIV-1JR-FL EnvΔCT expressed at the surface of HOS cells; test: Cell-based ELISA (CBE), 17b readout; conditions: MCG analogs 50 μM; BNM-III-170 5 μM; 2G12 and DMSO normalized
Description: Detection of trimeric HIV-1 Env at the surface of HOS cells was performed by cell-based ELISA, as described in Desormeaux, “The highly conserved layer-3 component of the HIV-1 gp120 inner domain is critical for CD4-required conformational transitions,” J. Virol. 87:2549-2562; Alsahafi, “Effects of the I559P gp41 change on the conformation and function of the human immunodeficiency virus (HIV-1) membrane envelope glycoprotein trimer,” 2015, PLoS One 10:e0122111; and Veillette, “Conformational evaluation of HIV-1 trimeric envelope glycoproteins using a cell-based ELISA assay,” 2014, J. Vis. Exp., 91:51995. To enhance cell-surface expression of HIV-1 EnvRF a stop codon was introduced to replace the codon for Gly 711, truncating the cytoplasmic tail (ACT). Briefly, HOS cells were seeded in T-75 flasks (3×10^6 cells per flask) and transfected the next day with 22.5 μg of Env-expressing plasmids (wild-type and mutants S375W, S375T, H66A, A582T/L587A, etc) using the standard polyethylenimine (PEI, Polyscience Inc, PA, USA) transfection method. Twenty-four hours after transfection, cells were plated in 384-wells plates (2×10^4 cells per well). One day later, cells were washed twice with blocking buffer (10 mg/mL non-fat dry milk, 1.8 mM CaCl2), 1 mM MgCl2, 25 mM Tris, pH 7.5 and 140 mM NaCl) and then incubated for 30 minutes at room temperature with different concentrations of MCG analogs or equivalent volume of vehicle (DMSO). Cells were then incubated for an additional 1 h at room temperature with anti-HIV-1 Env monoclonal antibodies recognizing CD4-induced gp120 epitopes (17b, A32), CD4-binding site gp120 epitopes (VRC03, VRC01, F105, and b12), gp120 V3 glycans (19b, PGT126, PGT122, and 10.1074), gp120 outer domain (2G12), and gp120-gp41 interface (PGT151 and VRC34) epitopes. All ligands were diluted in blocking buffer. A horseradish peroxidase-conjugated antibody specific for the Fc region of human or mouse IgG (Pierce) was then incubated with the samples for 45 minutes at room temperature. For all conditions, cells were washed 5 times with blocking buffer and 5 times with washing buffer (1.8 mM CaCl2), 1 mM MgCl2, 25 mM Tris, pH 7.5 and 140 mM NaCl). HRP enzyme activity was determined after the addition of 20 μl per well of a 1:1 mix of Western Lightning oxidizing and luminol reagents (Perkin Elmer Life Sciences). Light emission was measured with an LB 941 TriStar luminometer (Berthold Technologies) and analysis with Graph Pad software.
The data of Table 2 is given as the fold over BNM-III-170 (5 μM) of Cell-Based ELISA with MCG Analogs (50 μM)—17b readout, 2G12 and DMSO normalized.
To identify molecules able to expose vulnerable Env epitopes, a cell-based ELISA (CBE) assay was adapted, capable of measuring conformational changes of membrane-bound trimeric Env as described in Veillette, 2014, J. Vis. Exp. doi:10.3791/51995:51995; Haim, 2011, PLoS Pathog 7:e1002101, into a high-throughput screening (HTS) platform (FIG. 10A). Briefly, the cytoplasmic-tail deleted HIV-1JR-FL Tier-2/3 Env was expressed on the surface of HOS cells in a 384-well-plate format. The cytoplasmic tail of Env was deleted to enhance Env expression at the cell surface and therefore enhance the sensitivity of the CBE assay. See, Veilette and Haim, 2009, PLoS Pathog 5:e100036. Small molecules or, as a positive control, soluble (sCD4) were added to expose the HIV-1JR-FL EnvΔCT epitope that can be recognized by the CD4i antibody 17b. See, Wyatt, 1995, J. Virol. 69:5723-5733; Rizzuto, 1998, Science 280:1949-1953.
17b binding was detected by a horseradish peroxidase-conjugated (HRP) second antibody, and HRP enzyme activity was measured by Western Lightning oxidizing and luminal reagents. 17b binding in the presence of sCD4 was set as the control (FIG. 10B, blue dots), small molecules that enhanced 17b binding above 25% of the one induced by sCD4 were retested in quadruplicate and only one molecule (UM0059920) was deemed a true positive (FIG. 10B, red dots). […]

| Structure (SMILES) | fold induction at 50 µM [1] | fold induction at 50 µM [2] | Fold over BNM-III-170 - 17b binding (±0.05) [3] |
| --- | --- | --- | --- |
| O=C(Nc1ccc(Cl)c(F)c1)[C@H]1CCCN(S(=O)(=O)c2ccccc2)C1 [(S)-MCG-III-085-D01] | 5.95 | 6.4 | 0.45 fold |
| Cn1cnc(S(=O)(=O)N2CC(C(=O)Nc3ccc(Cl)c(F)c3)Cc3ccccc32)c1 (stereo not shown) [MCG-III-214-A04] | 0.924 | 1.15 | 0.18 fold |
| O=C(Nc1ccc(Cl)c(F)c1)C1CN(S(=O)(=O)c2ccccc2)CCO1 (stereo not shown) [MCG-III-211-A03] | 1.7 | 2.64 | 0.28 fold |
| O=C(Nc1ccc(Cl)c(Br)c1)[C@H]1CCCN(S(=O)(=O)c2ccccc2)C1 [(S)-MCG-III-085-D05] | 1.55 | 5.58 | 0.10 fold |
| CS(=O)(=O)N1CCC(C(=O)Nc2ccc(Cl)c(F)c2)CC1 [MCG-III-101] | 1.14 |  | 0.21 fold |
| O=C(Nc1ccc(F)c(Cl)c1)[C@H]1CCCN(S(=O)(=O)c2ccccc2)C1 [(S)-MCG-III-085-D02] | 1.37 | 2.54 | 0.18 fold |
| O=C(Nc1ccc(Cl)c(F)c1)[C@H]1CCCN(C(=O)Oc2ccccc2)C1 [(S)-MCG-III-188-A03] | 4.61 | 3.11 | 0.47 fold |
| CC(C)(C)OC(=O)N1CCN(S(=O)(=O)c2ccccc2)CC1C(=O)Nc1ccc(Cl)c(F)c1 (stereo not shown) [MCG-III-212-A03] | 1.24 | 1.1 | 0.06 fold |
| CCS(=O)(=O)N1CCCC(C(=O)Nc2ccc(Cl)c(F)c2)C1 (stereo not shown) [MCG-III-157-B02] | 2.62 |  | 0.68 fold |
| O=C(Nc1ccc(Cl)c(F)c1)[C@H]1CCCN(S(=O)(=O)c2ccc(Br)cc2)C1 [(S)-MCG-III-128] | 1.07 |  | 0.21 fold |
| O=C(Nc1ccc(Cl)c(Cl)c1)[C@H]1CCCN(S(=O)(=O)c2ccccc2)C1 [(S)-MCG-III-085-D03] | 2.03 | 4.87 | 0.20 fold |
| O=C(Oc1ccc(Cl)c(F)c1)[C@H]1CCCN(S(=O)(=O)c2ccccc2)C1 [(S)-MCG-III-213-A03] | 1.08 | 0.928 | 0.05 fold |
| O=C(Nc1ccc(Br)c(Cl)c1)[C@H]1CCCN(S(=O)(=O)c2ccccc2)C1 [(S)-MCG-III-085-D06] | 2 | 6.46 | 0.19 fold |
| N#Cc1ccc(S(=O)(=O)N2CCC[C@H](C(=O)Nc3ccc(Cl)c(F)c3)C2)cc1 [(S)-MCG-III-116-A06] | 1.15 |  | 0.31 fold |
| O=C(Nc1ccc(F)c(F)c1)[C@H]1CCCN(S(=O)(=O)c2ccccc2)C1 [(S)-MCG-III-085-D04] | 1.84 | 3.15 | 0.28 fold |
| CC(=O)Nc1ccc(S(=O)(=O)N2CCC[C@H](C(=O)Nc3ccc(Cl)c(F)c3)C2)cc1 [(S)-MCG-III-117] | 1.89 |  | 0.21 fold |
| O=C(Nc1ccc(Cl)c(F)c1)C1Cc2ccccc2N(S(=O)(=O)c2ccccc2)C1 (stereo not shown) [MCG-III-214-A03] | 1.05 | 0.911 | 0.09 fold |
| O=C(Nc1ccc(Cl)c(F)c1)[C@H]1CCCN(S(=O)(=O)c2cccnc2)C1 [(S)-MCG-III-116-A01] | 2.15 |  | 0.41 fold |
| CCS(=O)(=O)N1CCC[C@H](C(=O)Nc2ccc(Br)c(Cl)c2)C1 [(S)-MCG-III-085-C06] | 1.28 | 3.1 | 0.34 fold |
| COc1ccc(S(=O)(=O)N2CCC[C@H](C(=O)Nc3ccc(Cl)c(F)c3)C2)cc1 [(S)-MCG-III-116-A05] | 1.1 |  | 0.29 fold |
| CS(=O)(=O)N1CCCC(NC(=O)c2ccc(Cl)c(F)c2)C1 (stereo not shown) [MCG-III-157-C01] | 1.04 |  | 0.08 fold |
